Measurements published in patent US4563446A, “Thromboxane synthetase inhibiting 3-(1-alkenyl) pyridines” (Takeda Chemical Industries, Ltd., priority 1983, dated 1986).

Tested on: TXA2 synthetase
Test: Inhibitory effect on blood thromboxane A2 (TXA2) production in rats
Type: in vivo, Male Sprague-Dawley rats
Settings: 10 mg/kg oral, 2 hours after administration; serum TXB2 by radioimmunoassay, versus control
Protocol: Male Sprague-Dawley rats aged 7 to 8 weeks were used in groups of 5 individuals. Rats in the dosing group received by oral administration of 2 ml/kg of an aqueous suspension of 10 mg/kg of the test compound prepared with a small amount of gum arabic. To rats in the control group, a suspension of gum arabic only was similarly administered. Two hours after administration, each rat was anesthetized with pentobarbital sodium (50 mg/kg, intraperitoneal) and 1 ml of blood was taken from the abdominal aorta. The blood was allowed to stand at 25° C. for 90 minutes, after which it was centrifuged at 15,000 rpm for 2 minutes to separate the serum. The serum thromboxane B2 (TXB2) which was a stable metabolite of TXA2 produced in the blood during the standing procedure was determined by radioimmunoassay (Shibouta et al., Biochemical Pharmacol. 28, 3601, 1979). The percent inhibition of TXA2 synthetase was calculated from the difference in TXB2 production between the control and dosing groups.

SMILES | % inhibition of TXA2 synthetase [%]
O=C(Nc1ccccc1)OCCCCC/C=C(\c1ccccc1)c1cccnc1 [Id-27, 1-phenylaminocarbonyloxy-(E)-7-phenyl-7-(3-pyridyl)-6-heptene] | 87
CC(C)(C)[Si](C)(C)OCCCCC/C=C(\c1ccccc1)c1cccnc1 [Id-48, dimethyl-t-butylsilyl ether of (E)-7-phenyl-7-(3-pyridyl)-6-hepten-1-ol] | 91
CCCCC/C=C(\c1ccccc1)c1ccc[n+]([O-])c1 [Ie-9] | 68
NC(=O)CCCC/C=C(\c1ccccc1)c1cccnc1 [Id-43, (E)-7-phenyl-7-(3-pyridyl)-6-heptenamide] | 93
O=COCCCCC/C=C(\c1ccccc1)c1cccnc1 [Id-20, 1-formyloxy-(E)-7-phenyl-7-(3-pyridyl)-6-heptene] | 87
CCCCC/C=C(\c1ccccc1)c1cccnc1 [Id-5, (E)-1-phenyl-1-(3-pyridyl)-1-heptene] | 73
O=C(CCCC/C=C(\c1ccccc1)c1cccnc1)Nc1ccccc1 [Id-44, N-phenylamide of (E)-7-phenyl-7-(3-pyridyl)-6-heptenoic acid] | 94
O=C(Nc1ccccc1)OCCCCC/C=C(\c1ccccc1)c1ccc[n+]([O-])c1 [Ie-8] | 80
Cc1ccc(S(=O)(=O)NC(=O)OCCCCC/C=C(\c2ccccc2)c2cccnc2)cc1 [Id-29, 1-(p-toluenesulfonyl)aminocarbonyloxy-(E)-7-phenyl-7-(3-pyridyl)-6-heptene] | 94
COCCCCC/C=C(\c1ccccc1)c1cccnc1 [Id-37, (E)-1-methoxy-7-phenyl-7-(3-pyridyl)-6-heptene] | 92
OCCCCC/C=C(\c1cccnc1)c1cccs1 [Id-18] | 72
O=C(O)CCCC/C=C(/c1ccc[n+]([O-])c1)c1cccs1 [Ie-5] | 90
COC(=O)CCCC/C=C(\c1ccccc1)c1ccc[n+]([O-])c1 [Ie-6] | 80
CC(=O)OCCCCC/C=C(\c1ccccc1)c1cccnc1 [Id-19, 1-acetoxy-(E)-7-phenyl-7-(3-pyridyl)-6-heptene] | 94
O=C(O)CCCCCCCCC/C=C(\c1ccccc1)c1ccc[n+]([O-])c1 [Ie-4] | 85
OCCCCC/C=C(\c1cccnc1)c1cccs1 [Id-17, (E)-7-(3-pyridyl)-7-(2-thienyl)-6-hepten-1-ol] | 95
OCCCCC/C=C(/c1ccccc1)c1cccnc1 [Id-15] | 87
O=C(O)CCCCCCCCC/C=C(\c1ccccc1)c1cccnc1 [Id-9, (E)-12-phenyl-12-(3-pyridyl)-11-dodecenoic acid] | 90
CCCCNC(=O)OCCCCC/C=C(\c1ccccc1)c1cccnc1 [Id-25, 1-(n-butyl)aminocarbonyloxy-(E)-7-phenyl-7-(3-pyridyl)-6-heptene] | 83
O=C(O)CCCC/C=C(\c1ccccc1)c1ccc[n+]([O-])c1 [Ie-2, (E)-7-phenyl-7-(1-oxide-3-pyridyl)-6-heptenoic acid] | 85
[O-][n+]1cccc(/C(=C/CCCCCO)c2ccccc2)c1 [Ie-7, (E)-7-phenyl-7-(1-oxide-3-pyridyl)-6-hepten-1-ol] | 80
CNC(=O)OCCCCC/C=C(\c1ccccc1)c1cccnc1 [Id-24, 1-methylaminocarbonyloxy-(E)-7-phenyl-7-(3-pyridyl)-6-heptene] | 90
O=[N+]([O-])OCCCCC/C=C(\c1ccccc1)c1cccnc1 [Id-32, 1-nitroxy-(E)-7-phenyl-7-(3-pyridyl)-6-heptene] | 94
OCCCCC/C=C(\c1ccccc1)c1cccnc1 [Id-14, (E)-7-phenyl-7-(3-pyridyl)-6-hepten-1-ol] | 92
O=C(O)CCCC/C=C(/c1ccccc1)c1ccc[n+]([O-])c1 [Ie-3] | 70
S=C(Nc1ccccc1)OCCCCC/C=C(\c1ccccc1)c1cccnc1 [Id-28, 1-phenylaminothiocarbonyloxy-(E)-7-phenyl-7-(3-pyridyl)-6-heptene] | 79

Tested on: not listed separately
Test: Oral toxicity
Type: in vivo
Settings: 1000 mg/kg/day, five rats, 14 days
From the text: Moreover, the compounds of the invention are very low in toxicity in rats, dogs and so forth and characterized by broad margin between the toxic dose and the therapeutically effective dose. […] Furthermore, the compounds (I) of the invention produced long-lasting pharmacological effects in vivo, so that their TXA2 synthetase inhibiting activity is expected to be retained stably for a prolonged period of time. Accordingly, the compounds provided by the invention are used in low doses in mammals, including humans, for the prevention or treatment of thrombosis due to TXA2 -induced platelet aggregation, ischemic diseases due to vasospasm in heart, brain, periphery and circulatory system (e.g. myocardial infarction, stroke, renal infarction, pulmonary infarction, infarction at some other site, digestive tract ulcer) and diseases due to imbalance of the ratio of TXA2 /PGI2, with low incidence of adverse effects resulting from long-term continuous use thereof. They are administered orally in the form of tablets, capsules, powders or granules, for instance, or parenterally in the form of injections or pellets. Generally, they are used in a daily oral dose of 20-200 mg per adult human or a daily parenteral dose of 10-100 mg per adult human, respectively in 1-3 divided doses.

SMILES | Deaths
OCCCCC/C=C(\c1ccccc1)c1cccnc1 [Id-14, (E)-7-phenyl-7-(3-pyridyl)-6-hepten-1-ol] | no rat was dead for 14 days
